Results taken from ChEMBL document CHEMBL1146000, “Synthesis, in vitro evaluation, and intraocular pressure effects of water-soluble prodrugs of endocannabinoid noladin ether” (J Med Chem, 2003).

Legend:
[1] = Half-life in 10% liver homogenate at 37 C (n = 3); format: ADME, tissue-based
[2] = Half-life in 4% cornea homogenate at 37 C (n = 3); format: ADME, tissue-based
[3] = Chemical stability in phosphate buffers at pH 7.4 at 37 C was determined; format: physicochemical; conditions: phosphate buffer
[4] = Aqueous solubility of the phosphate in TRIS buffers at pH 7.4 at 37 C was determined; format: physicochemical; conditions: TRIS buffer
[5] = Chemical stability in TRIS buffers at pH 7.4 at 37 C was determined; format: physicochemical; conditions: TRIS buffer
alkaline phosphatase = test: Half-life in alkaline phosphatase solution at 37 C (n = 2); format: ADME
[6] = Distribution coefficients at 25 C in a 1-octanol-TRIS buffer; format: physicochemical

Structure (SMILES)	half-life [1]	half-life [2]	half-life [3]	solubility [4]	half-life [5]	half-life (alkaline phosphatase)	logD [6]
CCCCC/C=C\C/C=C\C/C=C\C/C=C\CCCCOC(CO)COP(=O)(O)O (stereo not drawn)	7.1 min	18.1 min	17.9 days	> 5000 µg/mL	216 h	4.6 min	1.98
CCCCC/C=C\C/C=C\C/C=C\C/C=C\CCCCOC(CO)CO	–	–	–	< 0.1 µg/mL	–	–	–
CCCCC/C=C\C/C=C\C/C=C\C/C=C\CCCCOC(COP(=O)(O)O)COP(=O)(O)O	6.4 min	17.2 min	–	> 5000 µg/mL	–	1.6 min	0.65
